Here are results for 24 compounds from patent publication US10821110B2, “Composite preparation, containing novel 3-(4--(benzyloxy)phenyl)hex-4-inoic acid derivative and another active ingredient, for preventing or treating metabolic diseases” (HYUNDAI PHARM CO., LTD., priority 2014, dated 2020).

One assay deals with T1, human GPR40 (Homo sapiens, UniProt O14842).
T1 construct: host or cells: HEK-293
T1 sequence (O14842 whole entry): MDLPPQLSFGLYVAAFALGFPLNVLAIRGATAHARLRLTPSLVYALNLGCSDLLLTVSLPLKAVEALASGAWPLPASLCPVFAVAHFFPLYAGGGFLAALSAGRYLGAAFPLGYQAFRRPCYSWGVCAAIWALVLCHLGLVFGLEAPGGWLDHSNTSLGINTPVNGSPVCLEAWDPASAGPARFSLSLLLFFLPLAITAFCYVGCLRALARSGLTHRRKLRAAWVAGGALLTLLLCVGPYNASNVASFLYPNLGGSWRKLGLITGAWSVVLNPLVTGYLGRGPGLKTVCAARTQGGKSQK
Briefly: Activation of GPR40 protein: intracellular calcium change (Fluo-4, Flexstation 3) in transfected HEK-293 cells. The settings on record: HEK-293 cells transfected with human GPR40; intracellular calcium; read-out: EC50. It is filed as cell-based. As for the experimental part: The activation of GPR40 protein by a novel 3-(4-(benzyloxy)phenyl)hex-4-ynoic acid derivative of the present invention was evaluated through the change in intracellular calcium concentration due to the activity of GPR40 protein. First, HEK-293 cells were transfected with human GPR40 DNA (Origene, RC218370) by using Fugene HD (Promega, E2311). […] After 24 hours, the cell culture medium was removed, and replaced with Dulbecco's Modified Eagle Medium (DMEM, 50 μl) supplemented with 1% fetal bovine serum (FBS). For the measurement of calcium concentration, 50 μL of Fluo-4 reagent (Invitrogen, F10471) was added to each well and cultured in a 37° C. incubator for 2 hours. […] Two hours after the initiation of the culture, the prepared samples were automatically injected into the cells using Flexstation 3 (Molecular Devices), and then, the change in intracellular calcium concentration was measured using SoftMax®Pro software for 120 seconds. Here, for a non-treated group, dimethylsulfoxide (DMSO) was injected into the cells to measure the change in calcium concentration. The GPR40 protein activity was calculated from the measured calcium concentration result values using equation 1 below, and the GPR40 activity (EC50 value) by the samples was obtained. […] GPR 40 activity=(intracellular calcium concentration increased by the sample)/(intracellular calcium concentration of the non-treated group)×100 [Equation 1]
Background: Calcium assays in cells follow changes in intracellular calcium, usually with a dye or a luminescent sensor.
On to `CC#C[C@@H](CC(=O)O)c1ccc(OCc2ccc(CN3CCN(c4ccc(C(F)(F)F)cc4)CC3)cc2)cc1` [Example 22, (S)-3-(4-(4-((4-(4-(trifluoromethyl)phenyl)piperazin-1-yl)methyl)benzyloxy)phenyl)hex-4-ynoic acid], for which the EC50 is more than 300 nM.
The same measure, in the same setting: under `CC#C[C@@H](CC(=O)O)c1ccc(OCc2ccc(CN3CC=C(c4ccccc4)CC3)cc2)cc1` [Example 28, (S)-3-(4-(4-((4-phenyl-5,6-dihydropyridin-1(2H)-yl)methyl)benzyloxy)phenyl)hex-4-ynoic acid] stands less than 200 nM.
The same measure, in the same setting: the figure for `CC#C[C@@H](CC(=O)O)c1ccc(OCc2ccc(CN3CCN(c4ccc(O)cc4)CC3)cc2)cc1` [Example 35, (S)-3-(4-(4-((4-(4-hydroxyphenyl)piperazin-1-yl)methyl)benzyloxy)phenyl)hex-4-ynoic acid] is more than 300 nM; for “potassium (S)-3-(4-(4-((4-(4-(trifluoromethyl)phenyl)piperazin-1-yl)methyl)benzyloxy)phenyl)hex-4-ynoate [Example 24]” it is 200 to 300 nM.
Still for that read-out and setting: the figure for `CC#C[C@@H](CC(=O)O)c1ccc(OCc2ccc(CN3CC=C(c4ccc(S(C)(=O)=O)cc4)CC3)cc2)cc1` [Example 32, (S)-3-(4-(4-((4-(4-(methylsulfonyl)phenyl)-5,6-dihydropyridin-1(2H)-yl)methyl)benzyloxy)phenyl)hex-4-ynoic acid] is more than 300 nM.
As for `CC#C[C@@H](CC(=O)O)c1ccc(OCc2ccc(CCN3CCc4cc(OC)ccc4C3)cc2)cc1` [Example 48, (S)-3-(4-(4-(2-(6-methoxy-3,4-dihydroisoquinolin-2(1H)-yl)ethyl)benzyloxy)phenyl)hex-4-ynoic acid], the EC50 was more than 300 nM.
On the same count and under the same terms, under `CC#C[C@@H](CC(=O)O)c1ccc(OCc2ccc(CCN3Cc4ccccc4C3)cc2)cc1` [Example 49, (S)-3-(4-(4-(2-(isoindolin-2-yl)ethyl)benzyloxy)phenyl)hex-4-ynoic acid] stands more than 300 nM; under `CC#C[C@H](CC(=O)O)c1ccc(OCc2cccc(C3=CCC4(CC3)OCCO4)c2)cc1` [Example 8, (3R)-3-(4-(3-(1,4-dioxaspiro[4.5]dec-7-en-8-yl)benzyloxy)phenyl)hex-4-ynoic acid], more than 300 nM; under `CC#C[C@@H](CC(=O)O)c1ccc(OCc2cccc(C3=CCC4(CC3)OCCO4)c2)cc1` [Example 7, (3S)-3-(4-(3-(1,4-dioxaspiro[4.5]dec-7-en-8-yl)benzyloxy)phenyl)hex-4-ynoic Acid], less than 200 nM.
The same measure, in the same setting: under `CC#C[C@@H](CC(=O)O)c1ccc(OCc2ccc(CN3CCN(c4ccc(C#N)cn4)CC3)cc2)cc1` [Example 45, (S)-3-(4-(4-((4-(5-cyanopyridin-2-yl)piperazin-1-yl)methyl)benzyloxy)phenyl)hex-4-ynoic acid] stands more than 300 nM; under `CC#CC(CC(=O)O)c1ccc(OCc2cccc(C3=CCC4(CC3)OCCO4)c2)cc1` (stereo not drawn) [Example 1, 3-(4-(3-(1,4-dioxaspiro[4.5]dec-7-en-8-yl)benzyloxy)phenyl)hex-4-ynoic acid], more than 300 nM; under `CC#CC(CC(=O)O)c1ccc(OCc2ccc(CN3CCN(c4ccc(F)cc4)CC3)cc2)cc1` (stereo not drawn) [Example 18, 3-(4-(4-((4-(4-fluorophenyl)piperazin-1-yl)methyl)benzyloxy)phenyl)hex-4-ynoic acid], more than 300 nM.
On the same count and under the same terms, the figure for `CC#C[C@@H](CC(=O)O)c1ccc(OCc2ccc(CCN3CCc4ccccc4C3)cc2)cc1` [Example 50, (S)-3-(4-(4-(2-(3,4-dihydroisoquinolin-2(1H)-yl)ethyl)benzyloxy)phenyl)hex-4-ynoic acid] is more than 300 nM; for `CC#CC(CC(=O)O)c1ccc(OCc2ccc(CN3CCN(c4ccc(OCCCS(C)(=O)=O)cc4)CC3)cc2)cc1` (stereo not drawn) [Example 20, 3-(4-(4-((4-(4-(3-(methylsulfonyl)propoxy)phenyl)piperazin-1-yl)methyl)benzyloxy)phenyl)hex-4-ynoic acid] it is more than 300 nM.
Regarding `CC#C[C@@H](CC(=O)O)c1ccc(OCc2ccc(CN3CCC(c4ccccc4)CC3)cc2)cc1` [Example 26, (S)-3-(4-(4-((4-phenylpiperidin-1-yl)methyl)benzyloxy)phenyl)hex-4-ynoic acid], the EC50 is more than 300 nM.
On the same count and under the same terms, under `CC#C[C@@H](CC(=O)O)c1ccc(OCc2ccc(CN3CCC(c4ccccc4)C3)cc2)cc1` (stereo partly drawn) [Example 46, (3S)-3-(4-(4-((3-phenylpyrrolidin-1-yl)methyl)benzyloxy)phenyl)hex-4-ynoic acid] stands more than 300 nM.
The same measure, in the same setting: the figure for `CC#C[C@H](CC(=O)O)c1ccc(OCc2cccc(C3=CCC4(CC3)OCCO4)c2)cc1` [Example 10, L-lysine (3R)-3-(4-(3-(1,4-dioxaspiro[4.5]dec-7-en-8-yl)benzyloxy)phenyl)hex-4-ynoate] is more than 300 nM; for `CC#C[C@@H](CC(=O)O)c1ccc(OCc2ccc(CN3CC=C(c4ccc(OCCCS(C)(=O)=O)cc4)CC3)cc2)cc1` [Example 33, (S)-3-(4-(4-((4-(4-(3-(methylsulfonyl)propoxy)phenyl)-5,6-dihydropyridin-1(2H)-yl)methyl)benzyloxy)phenyl)hex-4-ynoic acid] it is more than 300 nM.
On to `CC#CC(CC(=O)O)c1ccc(OCc2ccc(CN3CCc4ccccc4C3)c(C3=CCCCC3)c2)cc1` (stereo not drawn) [Example 13, 3-(4-(3-cyclohexenyl-4-((3,4-dihydroisoquinolin-2(1H)-yl)methyl)benzyloxy)phenyl)hex-4-ynoic acid], for which the EC50 was more than 300 nM.
Still for that read-out and setting: the figure for `CC#C[C@@H](CC(=O)O)c1ccc(OCc2ccc(CN3Cc4ccccc4C3)cc2)cc1` [Example 27, (S)-3-(4-(4-(isoindolin-2-ylmethyl)benzyloxy)phenyl)hex-4-ynoic acid] is less than 200 nM; for `CC#CC(CC(=O)O)c1ccc(OCc2ccc(CN3CCN(c4ccccc4)CC3)cc2)cc1` (stereo not drawn) [Example 15, 3-(4-(4-((4-phenylpiperazin-1-yl)methyl)benzyloxy)phenyl)hex-4-ynoic acid] it is more than 300 nM.
For the compound `CC#C[C@@H](CC(=O)O)c1ccc(OCc2ccc(C(C)N3CCc4ccccc4C3)cc2)cc1` (stereo partly drawn) [Example 34, (3S)-3-(4-(4-(1-(3,4-dihydroisoquinolin-2(1H)-yl)ethyl)benzyloxy)phenyl)hex-4-ynoic acid], the EC50 is more than 300 nM.
Still for that read-out and setting: under `CC#CC(CC(=O)O)c1ccc(OCc2ccc(CN3CCC(c4ccccc4)CC3)cc2)cc1` (stereo not drawn) [Example 17, 3-(4-(4-((4-phenylpiperidin-1-yl)methyl)benzyloxy)phenyl)hex-4-ynoic acid] stands more than 300 nM; under `CC#CC(CC(=O)O)c1ccc(OCc2ccc(CN3CCN(c4ccc(C(F)(F)F)cc4)CC3)cc2)cc1` (stereo not drawn) [Example 19, 3-(4-(4-((4-(4-(trifluoromethyl)phenyl)piperazin-1-yl)methyl)benzyloxy)phenyl)hex-4-ynoic acid], more than 300 nM.

The assay is the same for the next values; noted with them: HEK-293 cells transfected with human GPR40; values in text; read-out: concentration activating the GPR40 protein by 50% (EC50).
As to `CC#C[C@@H](CC(=O)O)c1ccc(OCc2ccc(CN3CC=C(c4ccccc4)CC3)cc2)cc1` [Example 28, (S)-3-(4-(4-((4-phenyl-5,6-dihydropyridin-1(2H)-yl)methyl)benzyloxy)phenyl)hex-4-ynoic acid], the EC50 is not above 200 nM.
Same read-out and setting: the figure for `CC#C[C@@H](CC(=O)O)c1ccc(OCc2cccc(C3=CCC4(CC3)OCCO4)c2)cc1` [Example 7, (3S)-3-(4-(3-(1,4-dioxaspiro[4.5]dec-7-en-8-yl)benzyloxy)phenyl)hex-4-ynoic Acid] is not above 200 nM; for `CC#C[C@@H](CC(=O)O)c1ccc(OCc2ccc(CN3Cc4ccccc4C3)cc2)cc1` [Example 27, (S)-3-(4-(4-(isoindolin-2-ylmethyl)benzyloxy)phenyl)hex-4-ynoic acid] it is not above 200 nM.
